In assay [1] the test system is HIV-1 strain IIIb. The assay is described as follows: Inhibition of virus spread in HIV-infected MT-4 cells (p24 antigen). It counts as cell-based. The note with it: Human immunodeficiency virus 1, MT4, 72 h; HIV-1 IIIb-infected MT-4 cells; 3 days incubation; HIV p24 antigen in supernatant; read-out: CIC95. As for the experimental part: INHIBITION OF VIRUS SPREAD
A. Preparation of HIV-infected MT-4 cell Suspension.
MT cells were infected at Day 0 at a concentration of 250,000 per ml with a 1:1000 dilution of HIV-1 strain IIIb stock (final 125 pg p24/ml; sufficient to yield ≤1% infected cells on day 1 and 25-100% on day 4). Cells were infected and grown in the following medium: RPMI 1640 (Whittaker BioProducts), 10% inactivated fetal bovine serum, 4 mM glutamine (Gibco Labs) and 1:100 Penicillin-Streptomycin (Gibco Labs).
The mixture was incubated overnight at 37° C. in 5% CO2 atmosphere.
B. Treatment with Inhibitors
A matrix of nanomolar range concentrations of the pairwise combinations was prepared. At Day 1, aliquots of […] of inhibitors were added to equal volumes of HIV-infected MT-4 cells (50,000 per well) in a 96-well microtiter cell culture plate. Incubation was continued for 3 days at 37° C. in 5% CO2 atmosphere.
C. Measurement of Virus Spread
Using a multichannel pipettor, the settled cells were resuspended and […] harvested into a separate microtiter plate. The supernatant was assayed for HIV p24 antigen.
The concentration of HIV p24 antigen was measured by an enzyme immunoassay,described as follows. Aliquots of p24 antigen to be measured were added to microwells coated with a monoclonal antibody specific for HIV core antigen. […]

Assay [2] deals with T1, HIV protease (Human immunodeficiency virus type 1 group M subtype B, UniProt P12497).
T1 construct: the protease expressed in Eschericia coli; made in house; host or cells: Escherichia coli
The experiment in a line: Assay for inhibition of microbial expressed HIV protease (peptide substrate, HPLC). It counts as biochemical. The note with it: protease expressed in Eschericia coli, 50 mM Na acetate, pH 5.5, 30° C., 1 hour. As for the experimental part: Assay for Inhibition of Microbial Expressed HIV Protease
Inhibition studies of the reaction of the protease expressed in Eschericia coli with a peptide substrate [Val-Ser-Gln-Asn(betanapthyl)Ala-Pro-Ile-Val, 0.5 mg/mL at the time the reaction is initiated] were in 50 mM Na acetate, pH 5.5, at 30° C. for 1 hour. Various concentrations of inhibitor in […] DMSO were added to […] of the peptide solution in water. The reaction is initiated by the addition of […] of 0.33 nM protease (0.11 ng) in a solution of 0.133M Na acetate pH 5.5 and 0.1% bovine serum albumin. The reaction was quenched with 160 ml of 5% phosphoric acid. Products of the reaction were separated by HPLC (VYDAC wide pore 5 cm C-18 reverse phase, acetonitrile gradient, 0.1% phosphoric acid). The extent of inhibition of the reaction was determined from the peak heights of the products.

Usually IC50 stands for the concentration needed to halve the response being measured. `CC(C)(C)NC(=O)c1ccccc1C[C@@H](O)C[C@@H](Cc1ccccc1)C(=O)N[C@H]1c2ccccc2C[C@H]1O` [Compound A]: in assay [1], the IC95 was 800 nM. In assay [2], this compound displayed an IC50 of 1 to 6 nM.

Take `CC(C)(C)NS(=O)(=O)c1ccccc1C[C@@H](O)C[C@@H](Cc1ccccc1)C(=O)N[C@H]1c2ccccc2C[C@H]1O` [Compound B]: in assay [1], the IC95 was 1500 nM. In addition, in assay [2], the IC50 lay within 1 to 6 nM.

Compound `Cc1ccc(C[C@@H](O)C[C@@H](Cc2ccccc2)C(=O)N[C@H]2c3ccccc3C[C@H]2O)c(C(=O)NC(C)(C)C)c1` [Compound C] came in with an IC50 in assay [2] of 1 to 6 nM.

(Values after US5747540A, “HIV protease inhibitors useful for the treatment of AIDS” (Merck & Co., Inc., priority 1996, dated 1998).)
